The values that follow come from US20170260169A1, “INHIBITORS FOR STEROID RESPONSE ELEMENTS AND RNA POLYMERASE II AND RELATED METHODS” (priority 2007, published 2017).

The structures appear in SMILES notation. Bounds are passed on as bounds.

In one data set the test system is ARE of the PSA promoter. As to the kind of experiment: Quantitative DNase I footprint titration on pAR-PSA fragment. It is filed as binding. The text has this:
Plasmid pAR-PSA was constructed by inserting a 70-bp sequence from the PSA promoter containing the ARE into pUC19 plasmid. […] Detailed experimental protocols are reported elsewhere (44). The proximal PSA promoter contains the ARE [NT] ID NO:15) (FIG. 8A). […] However, 1 is observed to bind the sequence [NT]≈12 bp 5' to the ARE, which is an expected binding site for this molecule.

For data set [1], the system named is binding of LNCaP nuclear extract factors to the ARE site in the PSA promoter. As to the kind of experiment: Electrophoretic mobility shift assay with DHT-stimulated LNCaP nuclear extract. It is filed as biochemical. As to conditions: same concentrations. The method, then:
containing the PSA promoter ARE (underlined) was end-labeled with ^32P and annealed to its complement. Polyamides 1 and 2 were incubated with the duplex for 3 h in previously optimized buffer conditions (45). Nuclear extract from DHT-treated LNCaP cells (Genetex, San Antonio, Tex.) was then added for an additional 45 min. Complexes were run on a 5% polyacrylamide gel and visualized on a phosphorimager.
The effects of polyamides 1 and 2 on the binding of factors present in the nuclear extract isolated from DHT-stimulated LNCaP cells to the ARE site in the PSA promoter was measured by an electrophoretic mobility shift assay (FIG. 8D).
On the technique in general: Mobility shift assays separate free from complexed probe on a gel.

In data set [2] the test system is PSA mRNA expression in LNCaP cells. As to the kind of experiment: DHT-induced PSA mRNA in LNCaP cells, quantitative real-time RT-PCR. It is filed as cell-based.
Method: LNCaP cells (ATCC) were plated in 24-well plates at a density of 40-50×10^3 cells per well (80-100×10^3 cells per ml) in RPMI medium 1640 (ATCC) supplemented with 10% FBS (Irvine Scientific, Santa Ana, Calif.). After 72 h, the medium was replaced with RPMI medium 1640 containing 10% charcoal stripped FBS with or without polyamides at the designated concentrations. Cells were grown for an additional 48 h and then treated with 1 nM DHT for 16 h. When appropriate, bicalutamide was added 2 h before DHT stimulation. Isolation of RNA and cDNA synthesis was performed as described (21). Quantitative real-time RT-PCR was performed with SYBR Green PCR Master Mix (Applied Biosystems, Foster City, Calif.) on an ABI 7300 instrument. PSA mRNA was measured relative to β-glucuronidase as an endogenous control.
The test system of data set [3] is AR occupancy at the PSA promoter and enhancer. As to the kind of experiment: Chromatin immunoprecipitation with anti-AR, PSA promoter and enhancer. The data set is classed as cell-based. The method, then:
LNCaP cells were plated in 15-cm diameter plates at a density of 2×10^6 cells per plate. Media, polyamide treatment, time course, and DHT stimulation were the same as described above. After the 16-h DHT treatment, cells were treated with 1% formaldehyde for 10 min. Chromatin was isolated and sheared. Antibodies to AR (AR-20, Santa Cruz Biotechnology, Santa Cruz, Calif.) were used to immunoprecipitate AR-bound DNA fragments. Crosslinks were reversed, and PCRs using primers targeted to the regions of interest were used to assess enrichment of bound fragments as compared with mock-precipitated (no antibody) controls. PCRs were monitored with SYBR Green PCR Master Mix (Applied Biosystems) on an ABI 7300 instrument. Primer sequences and a more detailed experimental protocol are available upon request.

In data set [4] the test system is FKBP5 mRNA expression in LNCaP cells. As to the kind of experiment: DHT-induced FKBP5 mRNA in LNCaP cells. It is filed as cell-based.
Data set [5] concerns AR occupancy at the FKBP5 intronic enhancer. As to the kind of experiment: Chromatin immunoprecipitation with anti-AR, FKBP5 fifth intron enhancer. It is filed as cell-based. As to conditions: 10 μM.
Data set [6] has as its system transcripts in DHT-stimulated LNCaP cells. As to the kind of experiment: Gene expression with Affymetrix Human Genome U133 Plus 2.0 arrays, DHT-stimulated LNCaP cells. It is filed as cell-based. The method, then: LNCaP cells were plated in 12-well plates at a density of 80-100×10^3 cells per well. Media, polyamide treatments, and time courses were the same as described above. Bicalutamide was added 2 h before DHT stimulation. RNA was isolated as described in ref. 21. From this point, experiments were carried out at the Millard and Muriel Jacobs Gene Expression Facility at the California Institute of Technology. Labeled mRNA was hybridized to Affymetrix high-density Human Genome U133 Plus 2.0 arrays according to established protocols. Gene expression was analyzed by using Resolver (Rosetta Biosoftware, Seattle, Wash.). Data were uploaded to the Gene Expression Omnibus repository (accession no. GSE7708).
Global effects of polyamides 1 and 2 and bicalutamide on gene expression in DHT-stimulated LNCaP cells were monitored with Affymetrix (Santa Clara, Calif.) high-density Human Genome U133 Plus 2.0 arrays, which interrogate >50,000 transcripts.

Data set [7] has as its system GILZ mRNA expression in A549 cells. As to the kind of experiment: Dexamethasone-induced GILZ mRNA in A549 cells, quantitative real-time RT-PCR. It is filed as cell-based. In general terms: Real-time PCR tracks product formation cycle by cycle.
Data set [8] is described as follows: Multiple-dose subcutaneous injections, male C57BL/6J mice. As to conditions: 1 mg/kg SC every 3 days. It is filed as in vivo. As to the method: In addition to single dose injections, the effects of repeated dosing of polyamides 77-80 in mice were examined. In this experiment, 8 week-old male C57BL/6J mice (n=3 per dosing group) were treated with 1 mg/kg of polyamides 77-80 by subcutaneous injection every 3 days, for a cycle of three injections and then sacrificed two days after the final injection (FIG. 31A). As in the single dosing experiments, two mice per group were subjected to histopathology analysis and all blood samples were sent for analysis. […] These mice were promptly euthanized.
Serum from treated animals were collected by retroorbital bleeding. […] All samples were sent for analysis at IDEXX-RADIL.

For data set [9] the following is noted: previous assay, 0.3 mg/ml enzyme (34); cited from earlier work.
For data set [10] the following is noted: cited from earlier work.
Data set [11] is described as follows: Liver microsomal stability, human. Background: Liver microsomes are a subcellular fraction often used to study metabolism.
Data set [12] is described as follows: Liver microsomal stability, mouse.
Method: Briefly, each polyamide was incubated with 1 mg/ml human or mouse microsomes at 37° C. The reaction was incubated in 100 mM KH2PO4, 2 mM NADPH, 3 mM MgCl2 at pH 7.4. Samples were also incubated in the absence of NADPH to detect NADPH-free degradation. After 60 min the samples were mixed with an equal volume of ice cold methanol stop solution. The mixture was allowed to sit on ice for at least 10 min and mixed with an equal volume of water. The samples were then centrifuged to remove the precipitates and the samples were analyzed by LC/MS/MS. Data represents % remaining by comparing with time zero concentration. The experiments were performed in duplicate.
The nature of data set [13]: Escalating single dose subcutaneous injections, male C57BL/6J mice (weight, histopathology, serum).
Method: Representative mice (n=2 per dosing group unless otherwise noted) were subjected to histopathology analysis by a veterinary pathologist. Blood from all mice was sampled and sent for analysis of serum markers of target organs. […] These mice were euthanized when significant duress was apparent.
All animal experiments were conducted under an approved protocol at the California Institute of Technology. Animals were allowed to adjust for 3 days after arrival before treatment. […] Animals were monitored daily for weight loss over 9 days and sacrificed. […] Weight was recorded on days of injection and at the experiment endpoint.
Sacrificed animals from weight loss experiments were fixed in 10% formalin and sent for histopathology analysis by IDEXX-RADIL. Histopathologic analysis was performed on the cecum, duodenum, heart, ileum, kidney, liver, lung, pancreas, spleen, and stomach. Tissue analysis was performed as a blind study to the identity of the animals.
Serum from treated animals were collected by retroorbital bleeding. Blood samples were centrifuged at 6,000 rpm for 5 min to collect the serum. Serum ALT, AST, total bilirubin, BUN, and creatinine levels were sent for analysis by IDEXX-RADIL. Serum analysis was performed as a blind study to the identity of the animals.
Another data set relates to RPB1. As to the kind of experiment: RPB1 protein ELISA in LNCaP cells. It is filed as cell-based. The note with it: polyamide 10 μM 72 hr; doxorubicin 1 μM 24 hr. The method, then: […] Cells treated with DMSO vehicle and 1 μM doxorubicin for 24 h were used as control. Cellular RBP1 levels were determined by a RPB1 specific ELISA kit (Cusabio Life Sciences) according to manufacturer's instructions. Total cellular p53 protein level was determined with a pan-p53 ELISA kit (Roche) according to manufacturer's instructions. Assays were performed in biological triplicates.

A further data set relates to p53. As to the kind of experiment: p53 protein ELISA in LNCaP cells. The data set is classed as cell-based. The note with it: polyamide 10 μM 72 hr; doxorubicin 1 μM 24 hr. As to the method: Cellular levels of RPB1 and p53 protein in LNCaP cells after treatment with 10 μM 3 for 72 h were determined by ELISA. Cells treated with DMSO vehicle and 1 μM doxorubicin for 24 h were used as control. Cellular RBP1 levels were determined by a RPB1 specific ELISA kit (Cusabio Life Sciences) according to manufacturer's instructions. Total cellular p53 protein level was determined with a pan-p53 ELISA kit (Roche) according to manufacturer's instructions. Assays were performed in biological triplicates.

In data set [14] the test system is DNA damage in LNCaP cells. As to the kind of experiment: Alkaline comet assay in LNCaP cells. The note with it: polyamide 10 μM 48 h; dox 5 μM 4 h.
Method: LNCaP cells were plated at 1 million cells per 10 cm plate and allowed to adhere for 24 to 36 h. Cells were then incubated with either 10 μM 77 for 48 h or 5 μM doxorubicin for 4 h. DNA damage was assayed using the Trevigen CometAssay® system and samples were prepared from harvested cells according to the manufacture protocol. Comets were imaged on a confocal microscope (Exciter, Zeiss) at 10× magnification. Percentage of DNA in the tail was determined using Comet Assay Lite IV (Perceptive Instruments). More than one hundred comets were scored for each condition.
LNCaP cells were plated in 6 well plates at 100,000 cells per well and allowed to adhere for 36-48 h. The cells were then incubated with either 10 μM 78 for 48 h or 5 μM doxorubicin for 4 h. DNA damage was assayed using the Trevigen CometAssay system. Cells were harvested by gentle aspiration with PBS and prepared on slides according to the manufacturer's protocol. Comets slides were imaged on a confocal microscope (Exciter, Zeiss) at 10× magnification. Images were scored using Comet Assay Lite IV (Perceptive Instruments). More than 100 comets were scored for each condition. DNA damage is reported as percentage of DNA in the tail.
Setting [15] is: 10 μM, + DHT, relative to DHT-induced controls, p ≦ 0.01.
The mark [16] stands for this setting: relative to DHT-induced controls, + DHT.
Setting [17] is: 1 μM, Human, 1 hr at 37° C., 1 mg/ml microsomes.
[18] abbreviates: 1 μM, Mouse, 1 hr at 37° C., 1 mg/ml microsomes.

On to `CN(CCCNC(=O)c1cccc(C(=O)O)c1)CCCNC(=O)c1cc(NC(=O)c2cc(NC(=O)c3nc(NC(=O)c4cc(NC(=O)[C@H](N)CCNC(=O)c5nc(NC(=O)c6cc(NC(=O)c7cc(NC(=O)c8nccn8C)cn7C)cn6C)cn5C)cn4C)cn3C)cn2C)cn1C` [Polyamide 2], for which the “binding in the footprinted region” value in the data set on ARE of the PSA promoter is on record as “no measurable binding”. The molecule further showed a Ka in the data set with ARE of the PSA promoter (ARE consensus half-site 5′-AGAACA-3′) of less than 1e+07 M⁻¹. The “effect on binding to the labeled duplex” value in [1] is listed as “minimal effect”. In data set [2], the “effect on DHT-induced PSA mRNA” value was “more modest effect”. In data set [2] (LNCaP, over the course of the experiment), the “effects on cell growth” value is “no obvious detrimental effects on cell growth”. The “occupancy of AR at the PSA promoter and enhancer” value in data set [3] (1 μM as printed) is listed as “minimal effect”. For the same molecule, in data set [3] (10 μM, FIG. 9 legend), the “AR occupancy at the PSA promoter and enhancer” value was “not”. In addition, the “effect on FKBP5 expression” value in [4] was “minimal effect”. Also, the “occupancy of AR at the FKBP5 intronic enhancer” value in data set [5] is listed as “no measurable effect”. In data set [6] (setting [15]), the “Number of transcripts down-regulated (fold change ≦ −2.0)” value is 284, the “Number of transcripts down-regulated (fold change ≦ −4.0)” value was determined as 32, the “Number of transcripts up-regulated (fold change ≧ 2.0)” value is on record as 95 and the “Number of transcripts up-regulated (fold change ≧ 4.0)” value was determined as 11. Besides, the “number of transcripts affected by at least 2-fold” value in [6] (10 μM, P≦0.01, vs DHT-induced controls) came out at 379. Besides, the “share of interrogated transcripts affected” value in [6] (10 μM, at least 2-fold) is listed as less than 1%. Moreover, in [6] (P≦0.01), the “number of the 88 DHT-repressed transcripts derepressed at least 2-fold” value turned out to be 3 and the “number of the 199 DHT-induced transcripts inhibited at least 2-fold” value is 20. Further, in data set [6] (setting [16]), the “Fold-change of FKBP5” value stood at 1.5, the “Fold-change of KLK2” value was −1.1, the “Fold-change of KLK3 (PSA)” value was −1.4 and the “Fold-change of TMPRSS2” value is reported as −1.4. For the same molecule, in data set [7], the “effect on GILZ mRNA induction” value is on record as “more modest effect”.

Consider `CC(=O)N[C@@H](CNC(=O)c1cc(NC(=O)c2cc(NC(=O)c3cc(NC(=O)c4nccn4C)cn3C)cn2C)cn1C)CC(=O)Nc1cn(C)c(C(=O)Nc2cc(C(=O)Nc3cc(C(=O)Nc4cc(C(=O)NCCCN(C)CCCNC(=O)c5cccc(C(=O)O)c5)n(C)c4)n(C)c3)n(C)c2)n1` [Polyamide 80, ImPyPyPy-3-(R)^AcHNγ-ImPyPyPy-NHMe-IPA], for which the “liver and kidney histopathology” value in data set [8] was “marked hepatocellular necrosis and apoptosis in the liver and hyaline droplet accumulation in the kidneys”. The “weight and physical morbidity” value in [8] (three injections) was “dramatic weight loss, loss of mobility, and hunched posture within six days”. Further, the “stability against rat and human microsomes” value in [9] is reported as “stable”. Moreover, the “animal toxicity after single subcutaneous administration” value in data set [10] (female C57BL/6J mice, 77 at 2.5 and 5 mg/kg, 80 at 2.3 and […]) is “acute animal toxicity in addition to weight loss”. Moreover, the renal clearance result in [10] (mouse, in vivo) is “significant renal clearance was exclusive to 80”. Moreover, the “Mean remaining parent NADPH-free” value turned out to be 3.8% in data set [11] (setting [17]) and 4.9% in [12] (setting [18]). The “Mean remaining parent with NADPH” value is 3.0% in [11] (setting [17]) and 4.0% in data set [12] (setting [18]). Besides, the “intact after 1 hour incubation” value is given as “less than 5%” in data set [11] (human liver microsomes, with or without NADPH) and “less than 5%” in [12] (mouse liver microsomes, with or without NADPH). Besides, the “tolerability, behavior and morbidity after single SC dose” value in data set [13] (1, 3, 10 mg/kg) is recorded as “only tolerated at 1 mg/kg”. Also, the kidney histopathology entry in data set [13] (single SC 1 mg/kg) was “Milder tubular regeneration and karyomegaly”; in data set [13] (single SC 3 mg/kg) it was “Moderate atypical tubular regeneration”; in data set [13] (single SC 10 mg/kg) it was “Moderate atypical tubular regeneration”. Further, the liver histopathology result is “Mild hepatocellular necrosis and apoptosis” in data set [13] (single SC 1 mg/kg); “multifocal bridging hepatocellular necrosis and apoptosis” in data set [13] (single SC 3 mg/kg); “multifocal bridging hepatocellular necrosis and apoptosis” in data set [13] (single SC 10 mg/kg). The spleen histopathology entry in [13] (single SC 3 mg/kg) and in data set [13] (single SC 10 mg/kg) was “Mild lymphoid apoptosis in the white pulp of the spleen” throughout. In addition, the “serum kidney markers creatinine and BUN” value in data set [13] (single SC dose) was “significantly elevated creatinine and BUN at 10 mg/kg, and elevated BUN at 3 mg/kg”. Also, the “serum liver markers AST, ALT, total bilirubin” value in [13] (single SC dose) is “marked and severe elevations of AST, ALT, and total bilirubin at both 3 mg/kg and 10 mg/kg”.

For `COc1cccc2c1C(=O)c1c(O)c3c(c(O)c1C2=O)C[C@@](O)(C(=O)CO)C[C@@H]3O[C@H]1C[C@H](N)[C@H](O)[C@H](C)O1` [doxorubicin, reference compound], the RPB1 protein entry with RPB1 is “decreases”. In addition, in the data set on p53, the “cellular level of p53 protein” value is “increases”. In addition, the “DNA damage by comet assay” value in [14] was “significantly increases comet-tail percent of DNA”.
